Experimental data taken from US12048680B2, “Use of Gemfibrozil and derivative thereof for treatment and/or prevention of neurodegenerative disease” (Kunming Institute of Zoology Chinese Academy of Sciences, priority 2018, dated 2024).

Tests used:
[1] = tested on: APP/PS1ΔE9 mice; assay: Open field experiment (anxiety symptoms); assay type: in vivo, mouse; conditions: 2 months of administration
Procedure: (§1) Gemfibrozil was administered to 8-month-old APP/PS1ΔE9 mice (male and female halves). Gemfibrozil was first dissolved in dimethyl sulfoxide (DMSO) at a concentration of 50 mg/mL, and then diluted to a final concentration of 50 μg/mL with mouse drinking water to obtain a drug solution. The mice in the administration group were allowed to freely drink the drug solution containing gemfibrozil, in which the final concentration of DMSO in the solution was 0.1%; and the mice in the control group were allowed to drink water containing 0.1% DMSO freely. All drinking devices contained with Gemfibrozil were wrapped in aluminum foil to prevent decomposition by exposure. During dosing, the drug solution was replaced every 2 days. Mice were measured daily for water consumption. After 2 months of dosing, all mice were subjected to behavioural experiments. Mice were placed in the laboratory to be behaviourally tested one hour prior to the start of daily behavioural studies, and all behavioural experiments were completed between 9 and 17 o'clock. All experiments involving animals were approved by Animal Ethics Committee of the Kunming Institute of Zoology, CAS. We evaluated the anxiety symptom behavior of APP/PS1ΔE9 mice 2 months after administration of Gemfibrozil using an open field experiment. […]

[2] = tested on: hippocampal neurons; assay: Golgi staining, dendritic spine density in mouse brain neurons; assay type: in vivo; conditions: hippocampal neurons of APP/PS1ΔE9 mice treated for 2 months (C-D in FIG. 3)
Procedure: as §1, with “7.” for “We evaluated the anxiety symptom behavior of APP/PS1ΔE9 mice 2 months after administration of Gemfibrozil using an open field experiment.”

[3] = tested on: insoluble Aβ; assay: ELISA of insoluble Aβ in mouse brain tissue; assay type: in vivo; conditions: hippocampus and cortex tissues, vs control group (C in FIG. 4)
Procedure: Gemfibrozil was administered to 8-month-old APP/PS1ΔE9 mice (male and female halves). Gemfibrozil was first dissolved in dimethyl sulfoxide (DMSO) at a concentration of 50 mg/mL, and then diluted to a final concentration of 50 μg/mL with mouse drinking water to obtain a drug solution. The mice in the administration group were allowed to freely drink the drug solution containing gemfibrozil, in which the final concentration of DMSO in the solution was 0.1%; and the mice in the control group were allowed to drink water containing 0.1% DMSO freely. All drinking devices contained with Gemfibrozil were wrapped in aluminum foil to prevent decomposition by exposure. During dosing, the drug solution was replaced every 2 days. Mice were measured daily for water consumption. After 2 months of dosing, all mice were subjected to behavioural experiments. Mice were placed in the laboratory to be behaviourally tested one hour prior to the start of daily behavioural studies, and all behavioural experiments were completed between 9 and 17 o'clock. All experiments involving animals were approved by Animal Ethics Committee of the Kunming Institute of Zoology, CAS. 8. Content of insoluble Aβ in mouse brain tissue by ELISA The content of insoluble Aβ in brain tissue was detected by an ELISA kit (Elabscience), and the experiment was performed according to the instructions of the ELISA kit.

Compound: Cc1ccc(C)c(OCCCC(C)(C)C(=O)O)c1 [Gemfibrozil, 2,2-dimethyl-5-(2,5-dimethylphenoxy) pentanoic acid]
- anxiety symptoms ([1]; vs control group): significantly alleviated
- lingering time in the open field central region ([1]; vs control group (A, C in FIG. 2)): significantly increased
- dendritic spine density [2]: significantly up-regulated
- amount of insoluble Aβ40 [3]: significantly reduced
- amount of insoluble Aβ42 [3]: significantly reduced
- ratio of insoluble Aβ42 and Aβ40 [3]: did not change significantly
